What was measured:
[1] = target: T1, Human PDGFRβ, cytoplasmic domain (GST-PDGFRβ) (Homo sapiens, UniProt P09619); assay: Human PDGFRβ biochemical inhibition assay (off-chip Mobility Shift Assay)
T1 construct: made in house
Summary of the method: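 GST-tagged cytoplasmic domain (aa 557-1106) from baculovirus was incubated 1 h at room temperature with compound, CSKtide, ATP at Km and Mg²⁺ in HEPES buffer, pH 7.5. Phosphorylated and unphosphorylated peptide were separated by off-chip mobility shift, and the product ratio P/(P+S) gave percent inhibition.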

[2] = target: T2, Human PDGFRα, cytoplasmic domain (GST-PDGFRα) (Homo sapiens, UniProt P16234); assay: Human PDGFRα biochemical inhibition assay (off-chip Mobility Shift Assay)
T2 construct: made in house
T2 sequence (P16234 550-1089 T674I): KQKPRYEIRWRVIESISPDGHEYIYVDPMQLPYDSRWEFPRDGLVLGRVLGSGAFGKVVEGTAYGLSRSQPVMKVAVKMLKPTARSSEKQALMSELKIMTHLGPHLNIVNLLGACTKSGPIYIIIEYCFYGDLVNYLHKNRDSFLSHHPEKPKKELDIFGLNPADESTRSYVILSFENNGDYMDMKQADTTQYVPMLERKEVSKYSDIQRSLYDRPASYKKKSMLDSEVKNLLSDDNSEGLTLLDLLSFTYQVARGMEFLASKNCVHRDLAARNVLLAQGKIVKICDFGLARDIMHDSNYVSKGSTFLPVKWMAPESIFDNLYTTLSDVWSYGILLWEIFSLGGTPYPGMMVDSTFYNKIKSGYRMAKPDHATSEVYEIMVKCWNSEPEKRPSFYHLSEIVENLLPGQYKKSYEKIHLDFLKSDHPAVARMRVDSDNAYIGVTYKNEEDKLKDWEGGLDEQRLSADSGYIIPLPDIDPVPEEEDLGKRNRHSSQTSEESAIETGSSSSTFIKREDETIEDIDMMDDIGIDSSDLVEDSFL

T1 sequence (P09619 with tags, fused parts or gaps): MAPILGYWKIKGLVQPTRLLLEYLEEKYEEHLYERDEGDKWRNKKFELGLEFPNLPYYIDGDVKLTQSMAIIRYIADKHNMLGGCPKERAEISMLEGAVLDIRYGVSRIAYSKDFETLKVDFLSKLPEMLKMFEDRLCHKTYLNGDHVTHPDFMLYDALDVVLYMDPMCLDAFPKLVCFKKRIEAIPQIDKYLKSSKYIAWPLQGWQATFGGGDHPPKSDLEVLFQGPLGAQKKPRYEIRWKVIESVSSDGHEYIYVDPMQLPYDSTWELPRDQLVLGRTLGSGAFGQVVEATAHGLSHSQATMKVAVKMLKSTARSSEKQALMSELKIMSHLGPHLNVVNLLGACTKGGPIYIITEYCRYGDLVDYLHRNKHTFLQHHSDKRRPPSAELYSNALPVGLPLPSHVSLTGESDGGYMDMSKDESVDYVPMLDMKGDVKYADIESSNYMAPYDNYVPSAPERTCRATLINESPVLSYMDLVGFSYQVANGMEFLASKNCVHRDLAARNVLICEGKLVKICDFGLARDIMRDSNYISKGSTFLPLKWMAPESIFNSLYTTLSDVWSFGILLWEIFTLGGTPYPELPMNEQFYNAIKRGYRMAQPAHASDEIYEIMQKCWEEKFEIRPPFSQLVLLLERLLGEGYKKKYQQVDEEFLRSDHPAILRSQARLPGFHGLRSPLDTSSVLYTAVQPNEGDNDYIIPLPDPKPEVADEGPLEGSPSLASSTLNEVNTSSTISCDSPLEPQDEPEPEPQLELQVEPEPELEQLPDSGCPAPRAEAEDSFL

Compound	IC50 [1]	IC50 [2]
Cc1cncc(C(=O)Nc2cccc([C@H](C)Nc3cnc4cn(CCF)nc4n3)c2)c1 [Compound 277, (S)-N-(3-(1-((2-(2-fluoroethyl)-2H-pyrazolo[3,4-b]pyrazin-6-yl)amino)ethyl)phenyl)-5-methylnicotinamide]	< 300 nM	< 300 nM
Cc1cncc(C(=O)Nc2cccc([C@H](C)Nc3cnc4ccc(C(F)(F)F)cc4n3)c2)c1 [Compound 34, (S)-5-methyl-N-(3-(1-((7-(trifluoromethyl)quinoxalin-2-yl)amino)ethyl)phenyl) nicotinamide]	300 to 1000 nM	< 300 nM
Cc1cncc(C(=O)Nc2cccc([C@H](C)Nc3cnc4cn(-c5ccccc5)nc4n3)c2)c1 [Compound 434, (S)-5-methyl-N-(3-(1-((2-phenyl-2H-pyrazolo[3,4-b]pyrazin-6-yl)amino)ethyl)phenyl)nicotinamide]	< 300 nM	< 300 nM
CCn1cc2ncc(N[C@@H](C)c3cccc(NC(=O)c4ccc(CN5CC[C@H](O)C5)c(Cl)c4)c3)nc2n1 [Compound 494, 3-chloro-N-(3-((5)-1-((2-ethyl-2H-pyrazolo[3,4-b]pyrazin-6-yl)amino)ethyl)phenyl)-4-(((S)-3-hydroxypyrrolidin-1-yl)methyl) benzamide]	< 300 nM	< 300 nM
CCc1cc(C(=O)Nc2cccc([C@H](C)Nc3cnc4cn(CC)nc4n3)c2)ccc1CN1CCN(C)CC1 [Compound 498, (S)-3-ethyl-N-(3-(1-((2-ethyl-2H-pyrazolo[3,4-b]pyrazin-6-yl)amino)ethyl)phenyl)-4-((4-methylpiperazin-1-yl)methyl) benzamide]	< 300 nM	< 300 nM
C[C@H](Nc1cnc2cnn(C)c2n1)c1cccc(NC(=O)c2ccc(Cl)c(F)c2)c1 [Compound 191, (S)-4-chloro-3-fluoro-N-(3-(1-((1-methyl-1H-pyrazolo[3,4-b]pyrazin-6-yl)amino)ethyl)phenyl)benzamide]	< 300 nM	< 300 nM
CCn1cc2ncc(N[C@@H](C)c3cccc(NC(=O)c4ccc5c(c4)OCO5)c3)nc2n1 [Compound 64, (S)-N-(3-(1-((2-ethyl-2H-pyrazolo[3,4-b]pyrazin-6-yl)amino)ethyl)phenyl) benzo[d][1,3]dioxole-5-carboxamide]	300 to 1000 nM	< 300 nM
CCn1cc2ncc(N[C@@H](C)c3cccc(NC(=O)c4cnc(N5CCN(C)CC5)c(C(F)(F)F)c4)c3)nc2n1 [Compound 422, (S)-N-(3-(1-((2-ethyl-2H-pyrazolo[3,4-b]pyrazin-6-yl)amino)ethyl)phenyl)-6-(4-methylpiperazin-1-yl)-5-(trifluoromethyl)nicotinamide]	< 300 nM	< 300 nM
CSc1ccc(C(=O)Nc2cccc([C@H](C)Nc3cnc4cnn(C)c4n3)c2)cc1SC [Compound 269, (S)-N-(3-(1-((1-methyl-1H-pyrazolo[3,4-b]pyrazin-6-yl)amino)ethyl)phenyl)-3,4-bis(methylthio)benzamide]	< 300 nM	< 300 nM
CCn1cc(C(=O)Nc2ccc(F)c([C@H](C)Nc3cnc4cn(CC)nc4n3)c2)cn1 [Compound 310, (S)-1-ethyl-N-(3-(1-((2-ethyl-2H-pyrazolo[3,4-b]pyrazin-6-yl)amino)ethyl)-4-fluorophenyl)-1H-pyrazole-4-carboxamide]	< 300 nM	< 300 nM
C[C@H](Nc1cnc2cn[nH]c2n1)c1cccc(NC(=O)c2cncc(C(C)(C)F)c2)c1 [Compound 94, (S)-N-(3-(1-((1H-pyrazolo[3,4-b]pyrazin-6-yl)amino)ethyl)phenyl)-5-(2-fluoropropan-2-yl) nicotinamide]	< 300 nM	< 300 nM
COc1ccc(-n2ccc3ncc(N[C@@H](C)c4cccc(NC(=O)c5cncc(C)c5)c4)nc32)cc1OC [Compound 87, (S)-N-(3-(1-((5-(3,4-dimethoxyphenyl)-5H-pyrrolo [2,3-b]|pyrazin-3-yl)amino)ethyl)phenyl)-5-methylnicotinamide]	< 300 nM	< 300 nM
CCc1ncc(C(=O)Nc2cccc([C@H](C)Nc3cnc4cn(CC)nc4n3)c2)s1 [Compound 341, (S)-2-ethyl-N-(3-(1-((2-ethyl-2H-pyrazolo[3,4-b]pyrazin-6-yl)amino)ethyl)phenyl)thiazole-5-carboxamide]	< 300 nM	< 300 nM
Cc1cncc(C(=O)Nc2cccc([C@H](C)Nc3cnc4cc(C)sc4c3)c2)c1 [Compound 18, (S)-5-methyl-N-(3-(1-((2-methylthieno[3,2-b]pyridin-6-yl)amino)ethyl)phenyl)nicotinamide]	< 300 nM	< 300 nM
CCn1cc2ncc(N[C@@H](C)c3cccc(NC(=O)c4cnc5c(c4)CCCO5)c3)nc2n1 [Compound 56, (S)-N-(3-(1-((2-ethyl-2H-pyrazolo[3,4-b]pyrazin-6-yl)amino)ethyl)phenyl)-3,4-dihydro-2H-pyrano[2,3-b] pyridine-6-carboxamide]	< 300 nM	< 300 nM
CCOc1ncc(C(=O)Nc2cccc([C@H](C)Nc3cnc4cnn(C)c4n3)c2)cc1C [Compound 129, (S)-6-ethoxy-5-methyl-N-(3-(1-((1-methyl-1H-pyrazolo[3,4-b]pyrazin-6-yl)amino)ethyl)phenyl)nicotinamide]	< 300 nM	< 300 nM
Cc1cncc(C(=O)Nc2cccc([C@H](C)Nc3cnc4ccccc4c3)c2)c1 [Compound 2, (S)-5-methyl-N-(3-(1-(quinolin-3-ylamino)ethyl)phenyl)nicotinamide]	300 to 1000 nM	< 300 nM
CCn1cc2ncc(N[C@@H](C)c3cccc(NC(=O)c4ccc(N5CCN(C)CC5)c(Cl)c4)c3)nc2n1 [Compound 361, (S)-3-chloro-N-(3-(1-((2-ethyl-2H-pyrazolo[3,4-b]pyrazin-6-yl)amino)ethyl)phenyl)-4-(4-methylpiperazin-1-yl)benzamide]	300 to 1000 nM	< 300 nM

Other lines, results leading:

IC50 [1]	IC50 [2]	Compound
< 300 nM	< 300 nM	COc1cncc(C(=O)Nc2cccc([C@H](C)Nc3cnc4[nH]cc(C)c4n3)c2)c1 [Compound 555, (S)-5-methoxy-N-(3-(1-((7-methyl-5H-pyrrolo[2,3-b]pyrazin-2-yl)amino)ethyl)phenyl)nicotinamide]
300 to 1000 nM	< 300 nM	CCn1cc2ncc(N[C@@H](C)c3cc(NC(=O)Cc4ccc(C)cn4)ccc3C)nc2n1 [Compound 660, (S)-N-(3-(1-((2-ethyl-2H-pyrazolo[3,4-b]pyrazin-6-yl)amino)ethyl)-4-methylphenyl)-2-(5-methylpyridin-2-yl) acetamide]
≥ 1000 nM	< 300 nM	CCn1cc2ncc(N[C@@H](C)c3cccc(NC(=O)Cc4ccc(C(F)(F)F)c(F)c4)c3)nc2n1 [Compound 628, (S)-N-(3-(1-((2-ethyl-2H-pyrazolo[3,4-b]pyrazin-6-yl)amino)ethyl)phenyl)-2-(3-fluoro-4-(trifluoromethyl)phenyl)acetamide]
< 300 nM	< 300 nM	CCc1cc2ncc(N[C@@H](C)c3cc(NC(=O)c4ccc(C(F)(F)F)nc4)ccc3F)nc2s1 [Compound 620, (S)-N-(3-(1-((6-ethylthieno[2,3-b]pyrazin-3-yl)amino)ethyl)-4-fluorophenyl)-6-(trifluoromethyl)nicotinamide]
< 300 nM	< 300 nM	Cc1c[nH]c2ncc(N[C@@H](C)c3cccc(NC(=O)c4cncc(Cl)c4)c3)nc12 [Compound 565, (S)-5-chloro-N-(3-(1-((7-methyl-5H-pyrrolo[2,3-b]pyrazin-2-yl)amino)ethyl)phenyl)nicotinamide]
< 300 nM	< 300 nM	Cc1cc2ncc(N[C@@H](C)c3cccc(NC(=O)c4cnn(C5CCC5)c4)c3)nc2s1 [Compound 609, (S)-1-cyclobutyl-N-(3-(1-((6-methylthieno[2,3-b]pyrazin-3-yl)amino)ethyl)phenyl)-1H-pyrazole-4-carboxamide]
< 300 nM	< 300 nM	CCn1cc2ncc(N[C@@H](C)c3cc(NC(=O)Cc4ccc(C)c(C)n4)ccc3C)nc2n1 [Compound 717, (S)-2-(5,6-dimethylpyridin-2-yl)-N-(3-(1-((2-ethyl-2H-pyrazolo[3,4-b]pyrazin-6-yl)amino)ethyl)-4-methylphenyl) acetamide]
≥ 1000 nM	< 300 nM	CCn1cc2ncc(N[C@@H](C)c3cccc(NC(=O)Cc4cc(C)ccn4)c3)nc2n1 [Compound 678, (S)-N-(3-(1-((2-ethyl-2H-pyrazolo[3,4-b]pyrazin-6-yl)amino)ethyl)phenyl)-2-(4-methylpyridin-2-yl)acetamide]
300 to 1000 nM	< 300 nM	CCn1cc2ncc(N[C@@H](C)c3cccc(NC(=O)Cc4ccc(F)c(C)n4)c3)nc2n1 [Compound 699, (S)-N-(3-(1-((2-ethyl-2H-pyrazolo[3,4-b]pyrazin-6-yl)ainino)ethyl)phenvl)-2-(5-fluoro-6-methylpyridin-2-yl) acetamide]
300 to 1000 nM	< 300 nM	CCn1cc2ncc(N[C@@H](C)c3cccc(NC(=O)Cc4cc(F)ccc4F)c3)nc2n1 [Compound 640, (S)-2-(2,5-difluorophenyl)-N-(3-(1-((2-ethyl-2H-pyrazolo[3,4-b]pyrazin-6-yl)amino)ethyl)phenyl)acetamide]
≥ 1000 nM	< 300 nM	CCn1cc2ncc(N[C@@H](C)c3cc(NC(=O)Cc4cnc(C)c(F)c4)ccc3F)nc2n1 [Compound 706, (S)-N-(3-(1-((2-ethyl-2H-pyrazolo[3,4-b]pyrazin-6-yl)amino)ethyl)-4-fluorophenyl)-2-(5-fluoro-6-methylpyridin-3-yl) acetamide]
< 300 nM	< 300 nM	CCn1cc2ncc(N[C@@H](C)c3cccc(NC(=O)Nc4cnc(N(C)C)c(C)c4)c3)nc2n1 [Compound 742, (S)-1-(6-(dimethylamino)-5-methylpyridin-3-yl)-3-(3-(1-((2-ethyl-2H-pyrazolo[3,4-b]pyrazin-6-yl)amino)ethyl)phenyl)urea]
